Earlier results on one substance are cited in US11702451B2, “Method for synthesizing amanitins” (Heidelberg Pharma Research GmbH, priority 2017, dated 2023).

The data set addresses DNA-dependent RNA polymerase II (Homo sapiens, UniProt P24928). Particulars: background statement, no method given; read-out: KD of the complex between amanitin and RNA-polymerase II.

pKd: −log10 of the molar value.

One may read the pKd as the Kd on a negative log10 scale, so that one unit is a factor of ten. For the substance amanitin, the pKd is 8.52.
